Measurements as given in article PMC9354243, “The Role of Tryptophan in π Interactions in Proteins: An Experimental Approach” (Journal of the American Chemical Society, 2022).

How the values were obtained:
LmrR = biological target: LmrR; design: method as in Takeuchi et al. (SI ref 3, main ref 21); conditions: 25 °C, SPR, ref Takeuchi et al. (SI ref 3, main ref 21); cited from earlier work
[1] = biological target: T1, RibU W97Y labeled with 5,6,7triFW (Lactococcus lactis subsp. cremoris, UniProt D8KIE9, W97Y); experiment: Fluorescence titration of RibU with RBF, 5,6,7triFW variant; format: binding
T1 construct: His10; made in house; host or cells: Lactococcus lactis Trp auxotroph NZ9000-trp with pMG36e-trpRS
T1 sequence (D8KIE9 whole entry W97Y): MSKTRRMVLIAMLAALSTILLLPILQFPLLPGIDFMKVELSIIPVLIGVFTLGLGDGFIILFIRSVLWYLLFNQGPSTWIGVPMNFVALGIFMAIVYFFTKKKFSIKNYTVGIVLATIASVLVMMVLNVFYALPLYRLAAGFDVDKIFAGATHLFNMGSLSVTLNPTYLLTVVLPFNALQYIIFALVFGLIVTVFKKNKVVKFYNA
Description: (§1) Fluorescence titration experiments of the different RibU constructs with RBF at 20 °C allowed estimation of the impact of W68 fluorination or 5-methylation on the binding affinity (Figure 3 and Table 5).
(§2) Figure 3 Titration of Trp analog labeled RibU W97Y proteins with RBF. The RBF fluorescence was measured at the indicated RBF concentrations in the absence (triangles) or presence (dots) of the W97Y RibU variant (see insets). The difference between these two signals were calculated to build the titration curve. This curve was used to compute the RBF Kd (see Experimental Section in the Supporting Information). […]
(§3) Binding assays – Fluorescence titrations of RibU with RBF.
(§4) The concentration of the riboflavin stock was established using a Jasco V-650 spectrophotometer with an ε435 of 12600 M-1.cm-1 The concentration of RibU-His was calculated using a Nanodrop (Thermo […]
(§5) Riboflavin was excited at 435 nm and emission was recorded between 450 nm and 700 nm using a FluoroLog 322 Spectrofluorometer (Jobin Yvon). […] Titration experiments were performed in a 1 mL quartz cuvette at 20 °C as described.13 In brief, purified and desalted RibU protein in gel filtration buffer was titrated with RBF and after each addition the emission spectrum was recorded twice, corrected for buffer emission and instrument response and integrated. […]

[2] = biological target: T2, RibU W97Y labeled with 5,7diFW (Lactococcus lactis subsp. cremoris, UniProt D8KIE9, W97Y); experiment: Fluorescence titration of RibU with RBF, 5,7diFW variant; format: binding
T2 construct: His10; made in house; host or cells: Lactococcus lactis Trp auxotroph NZ9000-trp with pMG36e-trpRS
T2 sequence (D8KIE9 whole entry W97Y): as above
Description: as §1, §2, §3, §4, §5

[3] = biological target: T3, RibU W97Y labeled with 5MeW (Lactococcus lactis subsp. cremoris, UniProt D8KIE9, W97Y); experiment: Fluorescence titration of RibU with RBF, 5MeW variant; format: binding
T3 construct: His10; made in house; host or cells: Lactococcus lactis Trp auxotroph NZ9000-trp with pMG36e-trpRS
T3 sequence (D8KIE9 whole entry W97Y): as above
Description: as §1, §2, §3, §4, §5

[4] = biological target: T4, RibU W97Y labeled with 5FW (Lactococcus lactis subsp. cremoris, UniProt D8KIE9, W97Y); experiment: Fluorescence titration of RibU with RBF, 5FW variant; format: binding
T4 construct: His10; made in house; host or cells: Lactococcus lactis Trp auxotroph NZ9000-trp with pMG36e-trpRS
T4 sequence (D8KIE9 whole entry W97Y): as above
Description: as §1, §2, §3, §4, §5

Row | SMILES | Kd (LmrR) | Kd [1] | Fold lowering of the affinity by progressive fluorination of W68 ([1]; 20 °C, up to three fluoro-atoms introduced) | Kd [2] | Kd [3] | Kd [4]
1 | COc1cccc2c1C(=O)c1c(O)c3c(c(O)c1C2=O)C[C@@](O)(C(C)=O)C[C@@H]3O[C@H]1C[C@H](N)[C@H](O)[C@H](C)O1 [Dau, Daunomycin] | 350 nM | – | – | – | – | –
2 | Cc1cc2nc3c(=O)[nH]c(=O)nc-3n(C[C@H](O)[C@H](O)[C@H](O)CO)c2cc1C [RBF, riboflavin] | – | 24.9 ± 2.7 nM | 15 fold | 8.2 ± 0.9 nM | 1.2 ± 0.1 nM | 5.4 ± 1 nM
